From patent publication US20210214368A1, “COMPOUNDS FOR THIOL-TRIGGERED COS AND/OR H2S RELEASE AND METHODS OF MAKING AND USING THE SAME” (University of Oregon, priority 2018, published 2021) come the findings set out here.

Structures are written as SMILES.

Series [1] can be described thus: Thiol-triggered H2S release in PBS containing CA (MB assay). Particulars: for GSH-triggered H2S release: PBS containing GSH and CA. On the procedure: To evaluate thiol effects on COS/H2S release from cyclic perthiocarbamate compound embodiments, compound 306a (50 μM) was incubated in PBS (pH 7.4, 10 mM) containing Cys or GSH (up to 4.0 mM) and CA (25 μg/mL) and H2S release was monitored by MB assay. […] Additionally, other thiol triggers, such as cysteine, homocysteine, and N-acetyl cysteine, were combined with compound 306a to evaluate if they would trigger the compound to release H2S.
In this example, GSH-triggered H2S release from compound 900 was evaluated. […] To improve the H2S releasing capacity of ATB-346, compound 900 was made by reacting ATB-346 with chlorocarbonyl sulfenyl chloride reagent (see Scheme 9). The resultant compound 900 was then added to PBS containing GSH and CA.
Release of H2S from compound 404c (25 μM) in the presence of L-cysteine or reduced glutathione (GSH) (500 μM, 20 equiv.) measured by the spectrophotometric methylene blue assay, with results shown in FIG. 17.
In this example, additional compounds, such as cyclic sulfenyl thiocarbamate compounds 306a-306e, were evaluated for their ability to release H2S upon exposure to a biological thiol, cysteine.
With the hybrid NSAID in hand, COS/H2S release in aqueous buffer was evaluated.

Series [2] can be described thus: Cys-triggered fluorescence turn on in PBS. Particulars: compound 10 μM, Cys 100 μM, PBS pH 7.4. On the procedure:
Representative Measurement of Fluorescence Intensity of Compound Embodiments—A freshly prepared compound 202a stock solution (3.00 μL, 10.0 mM in DMSO) was added to 3.00 mL of PBS (Ph 7.40, 10.0 Mm) containing CA (25.0 μg/mL) in a quartz fluorescence cuvette. A Cys stock solution (10.0 mM) was then added to reach the desired working concentration. The reaction solution was excited at 490 nm and the fluorescence intensity (500-650 nm) was measured and recorded using a Quanta Master 40 spectrofluorometer.
In this example, it was determined that Cys-induced compound 202a activation can be monitored by tracking the fluorescein formation and accompanied fluorescence response, and, in some embodiments, the reaction proceeds more quickly when higher concentrations of thiols are added. Time-dependent fluorescence spectra (FIG. 2A) and UV-vis spectra (FIG. 2B) of a particular compound embodiment, compound 202a, (10 μM) in PBS buffer (pH 7.4, 10 mM) containing Cys (100 μM) and CA (25 μg/mL) were obtained using a fluorescence spectrometer. […] Fluorescein formation was also confirmed by UV-vis spectroscopy under the identical conditions (FIG. 2B). Specifically, a freshly prepared compound 202a stock solution (3.00 μL, 10.0 mM in DMSO) was added to 3.00 mL of PBS (pH 7.40, 10.0 mM) containing CA (25.0 μg/mL) in a quartz UV cuvette. A Cys stock solution (30.0 μL, 10.0 mM in H2O) was then added. The absorbance (350-600 nm) was measured for 3 hours using a Cary 100 spectrometer. A Cys-dependent fluorescence enhancement was observed when treating compound 202a (10 μM) with increasing concentrations of Cys (1-20 equiv.), indicating a high sensitivity of compound 202a towards Cys. […] In addition, to confirm the H2S delivery from compound 202a, compound 202a (10 μM) was treated with Cys (100 μM) in PBS containing CA (25 μg/mL) and quantified H2S release using the MB assay. […] Optical measurement conditions were as follows: […], and slit width=0.3 mm.

A short description of series [3]: Spectroscopic properties in PBS buffer (pH 7.4, 10 mM). It counts as physicochemical. The conditions noted are these: PBS (pH 7.4, 10 mM). How it is done: In this example, the spectroscopic properties in PBS buffer (pH 7.4, 10 mM) of compounds 202a-202d, and control compound 204. Compounds 202a-202c and control compound 204 were not absorptive in the visible region and are all these compounds were not fluorescent because the fluorescein unit is locked in the closed lactone form.

Series [4] has as its system RAW 264.7 cells. In words: Anti-inflammatory activity: LPS-induced NO2- accumulation (Griess). It counts as cell-based. The conditions noted are these: pretreatment 25 μM for 2 hours, then LPS 0.500 μg/mL 24 hours.
Description: Representative Procedure for Determining Anti-Inflammatory Activities of Compound Embodiments and Control Compounds—Macrophage RAW 264.7 cells were seeded in a 24-well plate (5×10^5 cells/well) containing 0.500 mL of DMEM and incubated at 37° C. under 5% CO2 for 24 hours. The confluent cells were washed with PBS and incubated with either compound 202a (0-25.0 μM), or GYY4137 (25.0 μM) at 37° C. for 2 hours. Compounds were then removed by washing cells with PBS and these pretreated cells were incubated in FBS-free DMEM containing LPS (0.500 μg/mL) for 24 hours. NO2— levels were measured by using a Griess Reagent Kit.
RAW 264.7 cells were incubated with compound 202a (0-25 μM) for 2 hours, followed by a 24-hour incubation with lipopolysaccharide (LPS, 0.5 μg/mL) to trigger the inflammatory response. The inflammation event usually results in the NO generation, which can be monitored by measuring nitrite (NO2—) accumulation.
Series [5] relates to HeLa cells. In words: Cellular imaging of H2S delivery in HeLa cells with C7-Az probe. In kind it is cell-based. Particulars: compound 50 μM, C7-Az 50 μM, 30 minutes. How it is done: HeLa cells were then plated in poly-D-lysine coated plates (MatTek) containing 2.00 mL of DMEM and incubated at 37° C. under 5% CO2 for 24 hours. The confluent cells were washed with PBS and then co-incubated with NucRed nuclear dye (2 drops), C7-Az (50.0 μM), and compound 202a (50.0 μM) for 30 minutes. Prior to imaging, the cells were washed with PBS and bathed in 2.00 mL of PBS. Cell imaging was performed on a Leica DMi8 fluorescent microscope. […] To confirm that compound 202a was not cytotoxic, confluent HeLa cells were incubated in FBS-free DMEM containing vehicle (0.5% DMSO), and compound 202a (6.25-50.0 μM) for 30 minutes in a 96-well plate. The culture media were then removed and 100 μL of FBS-free DMEM containing 10% CCK-8 solution was added to each well, and cells were incubated for 2 hours at 37° C. The absorbance at 450 nm was measured by using a microplate reader (see FIG. 8). The cell viability was measured and normalized to the vehicle group. The results are expressed as mean t SEM (n=6).

On to `O=c1ssc(=O)n1-c1ccc(Cl)cc1` [Compound 404c], for which the “COS released on reaction with thiols” value in series [1] (compound 25 μM, L-cysteine or GSH 500 μM (20 equiv.), CA, MB assay) is recorded as “two equivalents of COS”.

In the case of `O=C(Oc1ccc2c(c1)Oc1cc(O)ccc1C21OC(=O)c2ccccc21)SSCc1ccccc1` (stereo not shown) [Compound 202d], in series [2], the “fluorescence response to Cys” value is “minimal fluorescence enhancement”. Also, in series [3], the Φ was determined as 0.11 ± 0.01, the ε is given as 27,300 ± 2500 M^−1cm^−1, the λem is recorded as 514 nm and the λmax stood at 449 nm.

Regarding `SCc1ccccc1` [benzyl mercaptan], the “anti-inflammatory activity at 25 μM (NO2− production)” value in series [4] is given as “none of these species exhibited anti-inflammatory activities”.

Regarding `O=C(Oc1ccc2c(c1)Oc1cc(OC(=O)SCc3ccccc3)ccc1C21OC(=O)c2ccccc21)SCc1ccccc1` [Compound 204], in series [2], the “fluorescence response to Cys” value is listed as “No fluorescence response”. Moreover, the “anti-inflammatory activity at 25 μM (NO2− production)” value in series [4] was “none of these species exhibited anti-inflammatory activities”. Further, in series [5], the “C7-Az (H2S probe) fluorescence in HeLa cells” value is listed as “failed to turn on the fluorescence”.

`COc1ccc2cc(C(C)C(=O)Oc3ccc(-c4nc(=O)ss4)cc3)ccc2c1` (stereo not shown) [Compound 900]: the “GSH-triggered H2S release” value in series [1] is recorded as “promising H2S release was observed”. In addition, the “thiol-triggered H2S release in buffer with CTAB” value in series [1] (compound 50 μM, PBS pH 7.4, CTAB 1.0 mM, CA 25 μg/mL, Cys or GSH 1.0 mM) is “thiol-triggered H2S release was immediately observed”.

Take `COc1ccc2cc(C(C)C(=O)Oc3ccc(C(N)=S)cc3)ccc2c1` (stereo not shown) [ATB-346, reference compound]: the “GSH-triggered H2S release” value in series [1] was “not detected”.
